Experimental data reported in patent US6821980B1, “Substituted 5-benzyl-2,4-diaminopyrimidines” (Basilea Pharmaceutica AG, priority 1999, dated 2004).
Converted amounts (≈) assume the structure as drawn. Where two headings read alike, the source gives them in different places.

Tests used:
[1] = test system: Staphylococcus aureus 101; assay: MIC against Staphylococcus aureus 101; assay type: cell-based; details: Staphylococcus aureus 101, MRSA- and trimethoprim-resistant, clinical isolate; for MIC: read-out: MIC Sa101
[2] = test system: Streptococcus pneumoniae 1/1; assay: MIC against Streptococcus pneumoniae 1/1; assay type: cell-based
[3] = biological target: T1, purified DHFR of strain Sp1/1 of Streptococcus pneumoniae (Streptococcus pneumoniae serotype 4, UniProt Q54801); assay type: biochemical
T1 sequence (Q54801 1-168 I100L): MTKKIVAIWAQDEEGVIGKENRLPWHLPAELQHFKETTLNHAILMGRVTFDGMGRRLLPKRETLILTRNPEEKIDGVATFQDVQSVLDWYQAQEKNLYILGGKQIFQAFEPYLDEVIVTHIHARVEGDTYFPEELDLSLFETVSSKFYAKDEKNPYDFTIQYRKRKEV

[4] = biological target: purified DHFR of strain 157/4696 of Staphylococcus aureus (Staphylococcus aureus, UniProt P13955); assay: biochemical
[5] = Table 2, Streptococcus pneumoniae 1/1, trimethoprim- and penicillin-resistant, serotype 6, clinical isolate, read-out: MIC Sp1/1
[6] = Table 2, IC50 against purified DHFR of strain Sp1/1
[7] = Table 1, Streptococcus pneumoniae 1/1, trimethoprim- and penicillin-resistant, serotype 6, clinical isolate, read-out: MIC Sp1/1
[8] = Table 2, Streptococcus pneumoniae 1/1, trimethoprim- and penicillin-resistant, serotype 6, clinical isolate

purified DHFR of strain 157/4696 of Staphylococcus aureus, sequence (P13955 whole entry): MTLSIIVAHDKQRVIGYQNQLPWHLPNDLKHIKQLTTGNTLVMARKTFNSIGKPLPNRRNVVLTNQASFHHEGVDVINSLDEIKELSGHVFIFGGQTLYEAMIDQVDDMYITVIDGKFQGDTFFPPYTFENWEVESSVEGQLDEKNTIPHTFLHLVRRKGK

Molecule	MIC ([1]; Table 2)	MIC [2, 5]	IC50 [3, 6]	IC50 [4]	also measured
CCOc1cc(Cc2cnc(N)nc2N)cc(OS(=O)(=O)N(C)CC)c1-c1ccc(O)cc1 [Example 20-g, N-Ethyl-N-methyl-sulphamic acid 4-(2,4-diamino-pyrimidin-5-ylmethyl)-6-ethoxy-4′-hydroxy-biphenyl-2-yl ester]	2 µg/mL (≈ 4.22 µM)	1 µg/mL (≈ 2.11 µM)	7.2 nM	160 nM	–
CCOc1cc(Cc2cnc(N)nc2N)cc(OS(=O)(=O)N(C)C2CC2)c1-c1ccc(N)cc1 [Example 22e, N-Cyclopropyl-N-methyl-sulphamic acid 4′-amino-4-(2,4-diamino-pyrimidin-5-ylmethyl)-6-ethoxy-biphenyl-2-yl ester]	–	–	–	150 nM	MIC ([1]; Table 1): 2 µg/mL (≈ 4.13 µM); MIC [2, 7]: 1 µg/mL (≈ 2.06 µM); IC50 ([3]; Table 1, IC50 against purified DHFR of strain Sp1/1): 13 nM
CCOc1cc(Cc2cnc(N)nc2N)cc(OCC2CC2)c1-c1ccc(N)c(C)c1 [Example 11-a]	8 µg/mL (≈ 19.1 µM)	1 µg/mL (≈ 2.38 µM)	18 nM	1800 nM	–
CCOc1cc(Cc2cnc(N)nc2N)cc(OS(=O)(=O)C2CCC2)c1-c1cc(N)cc(F)c1 [Example 40-e, Cyclobutane-sulphonic acid 3′-amino-4-(2,4-diamino-pyrimidin-5-ylmethyl)-6-ethoxy-5′-fluoro-biphenyl-2-yl ester]	2 µg/mL (≈ 4.1 µM)	2 µg/mL (≈ 4.1 µM)	79 nM	160 nM	–
CCOc1cc(Cc2cnc(N)nc2N)cc(OS(=O)(=O)C(C)CC)c1-c1ccc(OC)c(N)c1 (stereo not shown) [Example 35-d, Butane-2-sulphonic acid 3′-amino-4-(2,4-diamino-gyrimidin-5-ylmethyl)-6-ethoxy-4′-methoxy-biphenyl-2-yl ester]	2 µg/mL (≈ 3.99 µM)	1 µg/mL (≈ 1.99 µM)	4.3 nM	95 nM	–
CCOc1cc(Cc2cnc(N)nc2N)cc(OS(=O)(=O)N2CCCCC2)c1-c1ccc(O)cc1 [Example 20-b, Piperidine-1-sulphonic acid 4-(2,4-diamino-pyrimidin-5-ylmethyl)-6-ethoxy-4′-hydroxy-biphenyl-2-yl ester]	1 µg/mL (≈ 2 µM)	0.5 µg/mL (≈ 1 µM)	1.8 nM	140 nM	–
CCOc1cc(Cc2cnc(N)nc2N)cc(OS(=O)(=O)N(C)C2CC2)c1-c1ccc(CN2CCOCC2)c(N)c1 [Example 30-b, N-Cyclopropyl-N-methyl-sulphamic acid 3′-amino-4-(2,4-diamino-pyrimidin-5-ylmethyl)-6-ethoxy-4′-morpholin-4-ylmethyl-biphenyl-2-yl ester]	2 µg/mL (≈ 3.43 µM)	2 µg/mL (≈ 3.43 µM)	14 nM	37 nM	–
CCOc1cc(Cc2cnc(N)nc2N)cc(OS(=O)(=O)N2CCOCC2)c1-c1ccc(N)cc1 [Example 22-d, Morpholine-4-sulphonic acid 4′-amino-4-(2,4-diamino-pyrimidin-5-ylmethyl)-6-ethoxy-biphenyl-2-yl ester]	2 µg/mL (≈ 4 µM)	1 µg/mL (≈ 2 µM)	6.1 nM	45 nM	–
CCOc1cc(Cc2cnc(N)nc2N)cc(OCC)c1-c1ccc(S(C)(=O)=O)cc1 [Example 02-i, 5-(2,6-Diethoxy-4′-methanesulphonyl-biphenyl-4-ylmethyl)-pyrimidine-2,4-diamine]	8 µg/mL (≈ 18.1 µM)	2 µg/mL (≈ 4.52 µM)	100 nM	1600 nM	–
CCOc1cc(Cc2cnc(N)nc2N)cc(OS(=O)(=O)N(C)C)c1-c1ccc(CN2CCOCC2)c(F)c1 [Example 64-b, Dimethylsulphamic acid 4-(2,4-diamino-pyrimidin-5-ylmethUl)-6-ethoxy-3′-fluoro-4′-morpholin-4-ylmethyl-biphenyl-2-yl ester]	2 µg/mL (≈ 3.57 µM)	2 µg/mL (≈ 3.57 µM)	27 nM	300 nM	–
CCOc1cc(Cc2cnc(N)nc2N)cc(OS(=O)(=O)C2CC2)c1-c1ccc(CN2CCOCC2)s1 [Example 24-, Cyclopropanesulphonic acid 5-(2,4-diamino-pyrimidin-5-ylmethyl)-3-ethoxy-2-(5-morpholin-4-ylmethyl-thiophen-2-yl)-phenyl ester]	4 µg/mL (≈ 7.33 µM)	1 µg/mL (≈ 1.83 µM)	16 nM	190 nM	–
CCOc1cc(Cc2cnc(N)nc2N)cc(OS(=O)(=O)CC(C)C)c1-c1ccc(O)cc1 [Example 15-f, 2-Methyl-propane-1-sulphonic acid 4-(2,4-diamino-pyrimidin-5-ylmethyl)-6-ethoxy-4′-hydroxy-biphenyl-2-yl ester]	4 µg/mL (≈ 8.46 µM)	0.5 µg/mL (≈ 1.06 µM)	6.7 nM	380 nM	–
5-[2-Cyclopropylmethyl-6-ethoxy-4′-(2-morpholin-4-yl-ethoxy)-biphenyl-4-ylmethyl]-pyrimidine-2,4-diamine [Example 56-]	–	–	32 nM	–	MIC Sa101 ([1]; Table 2): 8 µg/mL; MIC Sp1/1 [2, 8]: 2 µg/mL; IC50 ([4]; Table 2, IC50 against purified DHFR of strain 157/4696 (highly trimethoprim-resistant; clinical isolate), read-out: DHFR Sa1): 800 nM
CCOc1cc(Cc2cnc(N)nc2N)cc(OS(=O)(=O)N(C)C)c1-c1ccc(CN2CCOCC2)c(N)c1 [Example 30-a, Dimethylsulphamic acid 3′-amino-4-(2,4-diamino-pyrimidin-5-ylmethyl)-6-ethoxy-4′-morpholin-4-ylmethyl-biphenyl-2-yl ester]	2 µg/mL (≈ 3.59 µM)	2 µg/mL (≈ 3.59 µM)	4.5 nM	88 nM	–
CCOc1cc(Cc2cnc(N)nc2N)cc(OCC(C)(C)/C=C/C#N)c1-c1ccc(O)cc1 [Example 08-b, (E)-5-[4-(2,4-Diamino-pyrimidin-5-ylmethyl)-6-ethoxy-4′-hydroxy-biphenyl-2-yloxy]-4,4-dimethyl-pent-2-ene-nitrile]	8 µg/mL (≈ 17.4 µM)	–	38 nM	950 nM	MIC ([2]; Streptococcus pneumoniae, 1/1, read-out: MIC Sp1/1): 2 µg/mL (≈ 4.35 µM)
CCOc1cc(Cc2cnc(N)nc2N)cc(OS(=O)(=O)N(CC)CC)c1-c1ccc(O)cc1 [Example 20-h, Diethyl-sulphamic acid 4-(2,4-diamino-pyrimidin-5-ylmethyl)-6-ethoxy-4′-hydroxy-biphenyl-2-yl ester]	2 µg/mL (≈ 4.1 µM)	1 µg/mL (≈ 2.05 µM)	9.2 nM	350 nM	–
CCOc1cc(Cc2cnc(N)nc2N)cc(OCC2(CCC#N)CC2)c1-c1ccc(OC)cc1 [Example 09-c, 3-{1-[4-(2,4-Diamino-pyrimidin-5-ylmethyl)-6-ethoxy-4′-methoxy-biphenyl-2-yloxymethyl]-cyclopropyl}-propionitrile]	4 µg/mL (≈ 8.45 µM)	1 µg/mL (≈ 2.11 µM)	16 nM	900 nM	–
CCOc1cc(Cc2cnc(N)nc2N)cc(OCC2(CC#N)CC2)c1-c1ccc(OC)cc1 [Example 09-b]	8 µg/mL (≈ 17.4 µM)	2 µg/mL (≈ 4.35 µM)	–	1900 nM	–
CCOc1cc(Cc2cnc(N)nc2N)cc(OCC)c1-c1ccc(NC(C)=O)cc1 [Example 04-p, N-[4′-(2,4-Diamino-pyrimidin-5-ylmethl)-2′,6′-diethoxy-biphen-4-yl]-acetamide]	–	–	–	–	MIC Sa101 ([1]; Table 2): 8 µg/mL (≈ 19 µM); MIC Sp1/1 [2, 8]: 2 µg/mL (≈ 4.74 µM)
CCOc1cc(Cc2cnc(N)nc2N)cc(OCC)c1-n1cccc1 [Epiroprim, reference compound]	–	–	–	–	MIC ([1]; Table 1): 16 µg/mL (≈ 45.3 µM); MIC Sa101 ([1]; Table 2): 16 µg/mL (≈ 45.3 µM); MIC [2, 7]: 4 µg/mL (≈ 11.3 µM); MIC Sp1/1 [2, 8]: 4 µg/mL (≈ 11.3 µM); IC50 [3]: 190 nM
COc1cc(Cc2cnc(N)nc2N)cc(OC)c1OC [Trimethoprim, reference compound]	–	–	–	–	MIC ([1]; Table 1): 32 µg/mL (≈ 110 µM); MIC Sa101 ([1]; Table 2): 32 µg/mL (≈ 110 µM); MIC [2, 7]: > 32 µg/mL; MIC Sp1/1 [2, 8]: >32 µg/mL
